Data published in the RepoRT retention time repository (doi:10.1021/es4044374).

experiment: RP, Waters XBridge C18, 50 × 2.1 mm, 3.5 µm, 30 °C, 0.2 mL/min, estimated dead time 0.55 min; A: water + 0.1% formic acid, pH 3; B: methanol + 0.1% formic acid, pH 3; gradient (min/%B) 0/10 4/50 17/95 25/95 25.1/10 30/10; conditions: stereoisomer not certain

| Compound | LC retention time [min] |
| --- | --- |
| CCCCC1=NC2(CCCC2)C(=O)N1Cc1ccc(-c2ccccc2-c2nn[nH]n2)cc1 [Irbesartan] | 9.2 |
| CN1C(=O)CN=C(c2ccccc2)c2cc(Cl)ccc21 [Diazepam] | 10.1 |
| CCC1OC(=O)C(C)C(OC2CC(C)(OC)C(O)C(C)O2)C(C)C(OC2OC(C)CC(N(C)C)C2O)C(C)(O)CC(C)C(=O)C(C)C(O)C1(C)O (stereo not drawn) [Erythromycin] | 8.5 |
| CCNc1nc(Cl)nc(NC(C)(C)C#N)n1 [Cyanazine] | 6.6 |
| CSc1nnc(C(C)(C)C)c(=O)n1N [Metribuzin] | 6.9 |
| O=C(O)C(F)(F)C(F)(F)C(F)(F)C(F)(F)C(F)(F)C(F)(F)C(F)(F)F [Perfluorooctanoic acid] | 12.6 |
| COC(=O)c1ccccc1S(N)(=O)=O [2-Aminosulfonyl-benzoic acid methyl ester] | 4.5 |
| CCN(CC)C(=O)c1cccc(C)c1 [DEET] | 8.6 |
| COCCOCCOC [Diglyme] | 3.2 |
| CC(=O)SC1CC2=CC(=O)CCC2(C)C2CCC3(C)C(CCC34CCC(=O)O4)C12 (stereo not drawn) [Spironolactone] | 10.2 |
| Cc1ccc(NC(=O)N(C)C)cc1Cl [Chlortoluron] | 8.2 |
| N#Cc1nn(-c2c(Cl)cc(C(F)(F)F)cc2Cl)c(N)c1C(F)(F)F [Fipronil-desulfinyl] | 12.5 |
| O=S(=O)(O)NC1CCCCC1 [Cyclamate] | 3.6 |
| NC(=O)N1c2ccccc2C2OC2c2ccccc21 (stereo not drawn) [Carbamazepine-10,11-epoxide] | 6.3 |
| CC(C)(C)Nc1nc(N)[nH]c(=O)n1 [Terbutylazine-desethyl-2-hydroxy] | 2.9 |
| COc1cccc(C2(O)CCCCC2CN(C)C)c1 (stereo not drawn) [Tramadol] | 4.9 |
| CCCc1nc2c(C)cc(-c3nc4ccccc4n3C)cc2n1Cc1ccc(-c2ccccc2C(=O)O)cc1 [Telmisartan] | 9.2 |
| CCC(C)C(=O)OC1CC(O)C=C2C=CC(C)C(CCC(O)CC(O)CC(=O)O)C21 (stereo not drawn) [Pravastatin] | 9.2 |
| CCNc1nc(Cl)nc(NC(C)C)n1 [Atrazine] | 8.3 |
| CCN(CC)C(=O)C(C)Oc1cccc2ccccc12 (stereo not drawn) [Napropamid] | 11.7 |
| COc1nc(C)nc(N)n1 [2-Methyl-4-amino-6-methoxy-s-triazine] | 1.7 |

| Compound | LC retention time [min] |
| --- | --- |
| CC(C)Nc1nc(Cl)nc(NC(C)C)n1 [Propazine] | 9.9 |
| Nc1ccn(C2OC(CO)C(O)C2(F)F)c(=O)n1 (stereo not drawn) [Gemcitabine] | 1 |
| CC(C)(Oc1ccc(C(=O)c2ccc(Cl)cc2)cc1)C(=O)O [Fenofibric acid] | 12.6 |
| CC(Oc1ccc(Cl)cc1Cl)C(=O)O (stereo not drawn) [Dichlorprop] | 10.7 |
| CC(C)(Oc1ccc(CCNC(=O)c2ccc(Cl)cc2)cc1)C(=O)O [Bezafibrate] | 10.6 |
| CCN1CCCC1CNC(=O)c1cc(S(=O)(=O)CC)c(N)cc1OC (stereo not drawn) [Amisulpride] | 3.8 |
| Nc1ccc(S(=O)(=O)Nc2ncccn2)cc1 [Sulfadiazine] | 2.2 |
| COc1ccc2c3c1OC1C(O)C=CC4C(C2)N(C)CCC341 (stereo not drawn) [Codeine] | 2.8 |
| CCC1OC(=O)C(C)C(OC2CC(C)(OC)C(O)C(C)O2)C(C)C(OC2OC(C)CC(N(C)C)C2O)C(C)(OC)CC(C)C(=O)C(C)C(O)C1(C)O (stereo not drawn) [Clarithromycin] | 9.7 |
| O=c1[nH]c(Cl)c(Cl)cc1Cl [3,5,6-Trichloro-2-pyridinol] | 9.7 |
| CC(C)N(Cc1ccccc1)C(=O)C(C)(C)C [Tebutam] | 11.7 |
| Cc1cc(C)nc(NS(=O)(=O)c2ccc(N)cc2)n1 [Sulfamethazine] | 3.9 |
| CC(C)N(C(=O)C(=O)O)c1ccc(F)cc1 [Flufenacet OXA] | 6.2 |
| CCNc1nc(NC(C)C)[nH]c(=O)n1 [Atrazine-2-hydroxy] | 4.4 |
| O=C(O)COc1nc(Cl)c(Cl)cc1Cl [Triclopyr] | 10.3 |
| CCNc1nc(NCC)nc(OC)n1 [Simeton] | 4.9 |
| NCC(O)COc1ccc(CC(N)=O)cc1 (stereo not drawn) [Atenolol-desisopropyl] | 1 |
| NC(=O)N1c2ccccc2C(O)C(O)c2ccccc21 (stereo not drawn) [10,11-trans-Dihydroxy-10,11-dihydrocarbamazepine] | 6.1 |
| CN(C(=O)CO)c1c(I)c(C(=O)NCC(O)CO)c(I)c(C(=O)NCC(O)CO)c1I (stereo not drawn) [Iomeprol] | 1.6 |
| COc1cc(OC)nc(NS(=O)(=O)c2ccc(NC(C)=O)cc2)n1 [N4-Acetylsulfadimethoxine] | 6.3 |
| O=C(O)C(F)(F)C(F)(F)C(F)(F)C(F)(F)C(F)(F)C(F)(F)C(F)(F)C(F)(F)F [Perfluorononanoic acid] | 13.9 |

| Compound | LC retention time [min] |
| --- | --- |
| CCCC1COC(Cn2cncn2)(c2ccc(Cl)cc2Cl)O1 (stereo not drawn) [Propiconazole] | 13.1 |
| CCOC(=O)C1CC(=O)C(=C(O)C2CC2)C(=O)C1 (stereo not drawn) [Trinexapac-ethyl] | 8.9 |
| CCn1cc(C(=O)O)c(=O)c2cc(F)c(N3CCNCC3)cc21 [Norfloxacin] | 4.4 |
| CCC(CO)NCCNC(CC)CO (stereo not drawn) [Ethambutol] | 9.6 |
| Cc1ccc(C(C)NC(=O)C(NC(=O)OC(C)C)C(C)C)cc1 (stereo not drawn) [Iprovalicarb] | 11.4 |
| CCOCN(C(=O)CCl)c1c(C)cccc1CC [Acetochlor] | 11.7 |
| Cc1nc(N(C)C)nc(OC(=O)N(C)C)c1C [Pirimicarb] | 5 |
| c1ccc2n[nH]nc2c1 [1H-Benzotriazole] | 4.4 |
| O=C(NC(=O)c1c(F)cccc1F)Nc1cc(Cl)c(F)c(Cl)c1F [Teflubenzuron] | 16.1 |
| CC(C)Cc1ccc(C(C)C(=O)O)cc1 (stereo not drawn) [Ibuprofen] | 13.6 |
| CC1(C)CON(Cc2ccccc2Cl)C1=O [Clomazone] | 9.4 |
| CC(Cc1ccc(C(C)(C)C)cc1)CN1CC(C)OC(C)C1 (stereo not drawn) [Fenpropimorph] | 9.4 |
| Cc1nnc(-c2ccccc2)c(=O)n1N [Metamitron] | 4.9 |
| CC(C)=NOCCOC(=O)C(C)Oc1ccc(Oc2cnc3cc(Cl)ccc3n2)cc1 (stereo not drawn) [Propaquizafop] | 15 |
| CC1=CC(=O)NS(=O)(=O)O1 [Acesulfame] | 1.5 |
| CNC(=O)Oc1cc(C)c(SC)c(C)c1 [Methiocarb] | 10.4 |
| CON=C(C(=O)OC)c1ccccc1COc1ccccc1C [Kresoxim-methyl] | 12.5 |
| CCc1cccc(C)c1N(C(=O)CS(=O)(=O)O)C(C)COC (stereo not drawn) [Metolachlor ESA] | 7.8 |
| O=C(O)C(F)(F)C(F)(F)C(F)(F)C(F)(F)C(F)(F)C(F)(F)C(F)(F)C(F)(F)C(F)(F)F [Perfluorodecanoic acid] | 15.2 |
| COc1nc(NC(=O)NS(=O)(=O)c2ccccc2C(F)(F)F)nc(C(F)(F)F)n1 [Tritosulfuron] | 10.8 |
| O=C(O)C(F)(F)C(F)(F)C(F)(F)C(F)(F)F [Perfluoropentanoic acid] | 7.3 |

| Compound | LC retention time [min] |
| --- | --- |
| Cc1cccc(C)c1N(Cn1cccn1)C(=O)CS(=O)(=O)O [Metazachlor ESA] | 5.5 |
| O=C1Nc2ccc(Cl)cc2C(c2ccccc2)=NC1O (stereo not drawn) [Oxazepam] | 9 |
| COCC(C)N(C(=O)C(=O)O)c1c(C)csc1C (stereo not drawn) [Dimethenamid OXA] | 7.5 |
| CCCCc1ncc(C=C(Cc2cccs2)C(=O)O)n1Cc1ccc(C(=O)O)cc1 [Eprosartan] | 6.3 |
| O=P(O)(O)OCCC(F)(F)C(F)(F)C(F)(F)C(F)(F)C(F)(F)C(F)(F)F [Perfluorooctyl phosphate] | 12.1 |
| CCC1OC(=O)C(C)C(OC2CC(C)(OC)C(O)C(C)O2)C(C)C(OC2OC(C)CC(N(C)C)C2O)C(C)(O)CC(C)CN(C)C(C)C(O)C1(C)O (stereo not drawn) [Azithromycin] | 5.9 |
| Cc1nnc(-c2ccccc2)c(=O)[nH]1 [Metamitron-desamino] | 5.1 |
| O=P(O)(O)OCCC(F)(F)C(F)(F)C(F)(F)C(F)(F)C(F)(F)C(F)(F)C(F)(F)C(F)(F)F [Perfluorodecyl phosphate] | 14.7 |
| OCc1cccc(Oc2ccccc2)c1 [3-Phenoxybenzylalcohol] | 9.8 |
| CC(=NC#N)N(C)Cc1ccc(Cl)nc1 [Acetamiprid] | 5.3 |
| c1ccc2scnc2c1 [Benzothiazole] | 6.6 |
| CCCCCCCCn1sc(Cl)c(Cl)c1=O [4,5-Dichloro-2-n-octyl-3(2H)-isothiazolone (DCOIT)] | 15.3 |
| COC(=O)C1C2CC3c4[nH]c5cc(OC)ccc5c4CCN3CC2CC(OC(=O)c2cc(OC)c(OC)c(OC)c2)C1OC (stereo not drawn) [Reserpine] | 8.3 |
| COc1cc(OC)nc(NC(=O)NS(=O)(=O)c2ncccc2C(=O)N(C)C)n1 [Nicosulfuron] | 7.1 |
| COc1ccc(C(CN)C2(O)CCCCC2)cc1 (stereo not drawn) [N,N-Didesmethylvenlafaxine] | 6.3 |
| CCc1cccc(C)c1N1C(=O)COCC1C (stereo not drawn) [Metolachlor morpholinone] | 8.2 |
| CC(=O)N(C)N(C(=O)C(=O)N(C)C)c1ccccc1 [Dioxoaminopyrine] | 5.2 |
| CC(C)N(C(=O)COc1nnc(C(F)(F)F)s1)c1ccc(F)cc1 [Flufenacet] | 11.7 |
| COC(=O)Nc1cccc(OC(=O)Nc2cccc(C)c2)c1 [Phenmedipham] | 9.5 |
| COC=C(C(=O)O)c1ccccc1Oc1cc(Oc2ccccc2C#N)ncn1 [Azoxystrobin (free acid)] | 8.8 |
